Molecules are shown by their SMILES.

As usually defined, the IC50 is the concentration that gives 50% inhibition.

This assay addresses T1, PDE5 enzyme (Homo sapiens, UniProt O76074).
T1 construct: The PDE5 enzyme isolated from human platelets; from tissue; host or cells: human platelets
In words: Method 1: Human Platelet PDE5 Enzyme Inhibition Scintillation Proximity Assay. The class given is biochemical. Particulars: METHOD 1: PDE5 IC50, Table B, WO2004096810 examples. From the text: Method 1: Human Platelet PDE5 Enzyme Inhibition Scintillation Proximity Assay
An in vitro assay can be used to evaluate the inhibition of PDE5 enzyme activity by a test compound.
The PDE5 enzyme for use in the assay can be obtained from human platelets by appropriate modification of the method of Thompson, W J et al.; Biochemistry 18(23), 5228-5237, 1979, as described by Ballard S A et al.; J. Urology 159(6), 2164-2171, 1998. The PDE5 enzyme isolated from human platelets can be used to catalyze the hydrolysis of [^3H]cGMP (Amersham Biosciences) to 5′ nucleotide [^3H]GMP. The [^3H]GMP binds to yttrium silicate SPA beads (Amersham Biosciences) and is detected by scintillation counting. More specifically, the effect of the test compound at different concentrations can be evaluated in the assay by contacting the compound with a fixed amount of PDE5 enzyme in the presence of substrate (cGMP or cAMP in a 3:1 ratio unlabelled to [^3H]-labeled). Scintillation counting can be used as described above to determine relative PDE5 enzyme activity. The inhibition of PDE5 enzyme activity is then calculated relative to total PDE5 enzyme activity of uninhibited controls.
PDE5 IC50 Assay: 96-well microtiter plate format
• Buffer A: 20 mM Tris-HCl, 5 mM MgCl2, pH 7.4 • Buffer B: 2 mg/ml BSA in Buffer A (enzyme buffer) • cGMP substrate: Final concentration of 500 nM in assay The amount of ^3H-labeled substrate added depends upon the specific activity of [^3H]cGMP, and the cGMP substrate is diluted with a 10 mM stock of cold cGMP in Buffer A for a final substrate concentration of 500 nM in the assay. • PDE enzyme: Prepared in Buffer B. The dilution factor is determined by enzyme activity. • SPA beads: 20 mg/ml suspension prepared in dH2O.
Stocks of standard and test compounds are prepared at 5 mM in 100% DMSO. The compound is serially diluted in a dilution plate using a 10-point ½ log dilution format. 2 μl of the compound dilution is added in duplicate to the wells of the assay plate. 2 μl of 100% DMSO are added to designated control wells. 25 μl of Buffer A are added to all wells. 25 μl of Buffer B are added to the negative control wells. 25 μl of enzyme are added to the remaining wells. 50 μl of substrate are added to each well. Plates are sealed and incubated for 60 minutes on a plate shaker at 30 C. 50 plof SPA beads are added to stop the reaction. The plates are again sealed and shaken for 15 minutes to allow the beads to bind the GMP product. The beads are allowed to settle for 30 minutes and then read on a NXT TopCount scintillation counter. Data are analyzed with a curve fitting application for plate-based screening. Percent inhibition in this assay is calculated as follows: Inhibition (%)=[(mean maximum−compound value/(mean maximum−mean minimum)]×100.
The IC50 value is determined from sigmoid dose-response curves of enzyme activity versus compound concentration.
Molecule `CCOCCn1nc(CC)c2nc(N(C)[C@H]3CCN(C)C3)nc(Nc3ccncn3)c21` [WO2004096810 Example 193] yielded an IC50 of 1.01 nM. Next, `CCOCCn1nc(C)c2nc(N3CCN[C@H](C)C3)nc(Nc3ccc(OC)nc3)c21` [WO2004096810 Example 194]: 0.56 nM. Next, `CCOCCn1nc(C)c2nc(N3CCN[C@H](C)C3)nc(Nc3ccc(OC)cn3)c21` [WO2004096810 Example 195]: 0.96 nM; `CCOCCn1nc(C)c2nc(N3CCN[C@H](C)C3)nc(Nc3cccc(OC)n3)c21` [WO2004096810 Example 196]: 0.56 nM. Next, `CCOCCn1nc(C)c2nc(N3CCN[C@H](C)C3)nc(Nc3cccc(C)n3)c21` [WO2004096810 Example 197]: 1.76 nM; `CCOCCn1nc(C)c2nc(N3CCN[C@H](C)C3)nc(Nc3cc(C)cc(C)n3)c21` [WO2004096810 Example 198]: 10 nM; `CCOCCn1nc(C)c2nc(N3CCN[C@H](C)C3)nc(Nc3cnc(C)c(C)c3)c21` [WO2004096810 Example 199]: 3.13 nM. For `CCOCCn1nc(C)c2nc(N3CCN[C@H](C)C3)nc(Nc3cc(C)ncn3)c21` [WO2004096810 Example 200], the IC50 was found to be 4.7 nM. Next, `CCOCCn1nc(C)c2nc(N3CCN[C@H](C)C3)nc(Nc3ccc(=O)n(C)c3)c21` [WO2004096810 Example 201]: 25.9 nM. `CCOCCn1nc(C)c2nc(N(C)CCOC)nc(Nc3ccc(=O)n(C)c3)c21` [WO2004096810 Example 202] gave an IC50 of 5.46 nM. Next, `CCOCCn1nc(C)c2nc(N(C)CC)nc(Nc3ccc(=O)n(C)c3)c21` [WO2004096810 Example 203]: 0.63 nM; `CCOCCn1nc(C)c2nc(N3CC(NC)C3)nc(Nc3cc(C)ccn3)c21` [WO2004096810 Example 204]: 24.1 nM; `CCOCCn1nc(C)c2nc(N3CC(N(C)C)C3)nc(Nc3cc(C)ccn3)c21` [WO2004096810 Example 205]: 6.24 nM. Next, `CCOCCn1nc(C)c2nc(N3C[C@@H]4C[C@H]3CN4C)nc(Nc3cc(C)ccn3)c21` [WO2004096810 Example 206]: 6.09 nM; `CCOCCn1nc(C)c2nc(N(C)CCOC)nc(Nc3cc(C)ccn3)c21` [WO2004096810 Example 207]: 1.55 nM; `CCOCCn1nc(C)c2nc(N(C)CCO)nc(Nc3cc(C)ccn3)c21` [WO2004096810 Example 208]: 0.71 nM. Next, `CCOCCn1nc(C)c2nc(N3C[C@@H]4C[C@H]3CN4C)nc(Nc3ccncn3)c21` [WO2004096810 Example 210]: 82.7 nM.

Molecule `CCOCCn1nc(COC)c2nc(N3CCN[C@H](C)C3)nc(Nc3cccc(C)n3)c21` [WO2004096810 Example 211] displayed an IC50 of 1.57 nM.

`CCOCCn1nc(COC)c2nc(N(C)CC)nc(Nc3cc(C)ccn3)c21` [WO2004096810 Example 212] yielded an IC50 of 0.13 nM. Next, `CCOCCn1nc(COC)c2nc(N3CCC[C@H]3CO)nc(Nc3cc(C)ccn3)c21` [WO2004096810 Example 213]: 0.42 nM; `CCOCCn1nc(COC)c2nc(N(C)C3CCN(C)CC3)nc(Nc3cc(C)ccn3)c21` [WO2004096810 Example 214]: 0.37 nM.

For the molecule `CCOCCn1nc(COC)c2nc(N3CC(N(C)C)C3)nc(Nc3cc(C)ccn3)c21` [WO2004096810 Example 215], the IC50 came out at 5.3 nM. Next, `CCOCCn1nc(C)c2nc(N(C)CCN(C)C)nc(Nc3ccncn3)c21` [WO2004096810 Example 216]: 60.9 nM. Next, `CCOCCn1nc(C)c2nc(N(C)CC)nc(Nc3ccncn3)c21` [WO2004096810 Example 217]: 2.55 nM; `CCOCCn1nc(C)c2nc(N(C)CC)nc(Nc3ccnc(C)n3)c21` [WO2004096810 Example 218]: 11.5 nM; `CCOCCn1nc(C)c2nc(N(C)CCOC)nc(Nc3ccnc(C)n3)c21` [WO2004096810 Example 219]: 41 nM. Next, `CCOCCn1nc(C)c2nc(N3CCN[C@H](C)C3)nc(Nc3ccnc(C)n3)c21` [WO2004096810 Example 220]: 3.6 nM; `CCOCCn1nc(C)c2nc(N3CCN[C@H](C)C3)nc(Nc3nccc(C)n3)c21` [WO2004096810 Example 221]: 35.4 nM.

As to `CCOCCn1nc(C)c2nc(N3CCN[C@H](C)C3)nc(Nc3cc(C(F)(F)F)ccn3)c21` [WO2004096810 Example 222], the IC50 was 10.1 nM. `CCOCCn1nc(COC)c2nc(N(C)CC)nc(Nc3ccncn3)c21` [WO2004096810 Example 225] yielded an IC50 of 1.33 nM. Compared with the last molecule, the IC50 is about 7.6-fold lower.

With `CCOCCn1nc(COC)c2nc(N(C)CCOC)nc(Nc3cc(C)ccn3)c21` [WO2004096810 Example 226], the IC50 is 0.83 nM. In turn, `CCOCCn1nc(COC)c2nc(N(C)CCO)nc(Nc3cc(C)ccn3)c21` [WO2004096810 Example 227] yielded an IC50 of 0.35 nM. `CCOCCn1nc(CO)c2nc(N(C)CC)nc(Nc3ccncn3)c21` [WO2004096810 Example 228] had an IC50 of 3.09 nM.

For the molecule `CCOCCn1nc(CO)c2nc(N3C[C@@H]4C[C@H]3CN4)nc(Nc3cc(C)ccn3)c21` [WO2004096810 Example 229], the IC50 was determined as 1.61 nM. Next, `Cc1ccnc(Nc2nc(N3C[C@@H]4C[C@H]3CN4)nc3c(C)nn(CCOCC(F)(F)F)c23)c1` [WO2004096810 Example 231]: 10.3 nM; `CCOCCn1nc(C)c2nc(N3C[C@@H]4C[C@H]3CN4)nc(Nc3cnc(C)c(C)c3)c21` [WO2004096810 Example 233]: 3.85 nM; `CCOCCn1nc(C)c2nc(N3C[C@@H]4C[C@H]3CN4)nc(Nc3cc(C)cc(C)n3)c21` [WO2004096810 Example 234]: 8.79 nM. Next, `CCOCCn1nc(C)c2nc(N3C[C@@H]4C[C@H]3CN4)nc(Nc3cccc(C)n3)c21` [WO2004096810 Example 235]: greater than 100 nM; `CCOCCn1nc(C)c2nc(N3C[C@@H]4C[C@H]3CN4)nc(Nc3cc(C)ccn3)c21` [WO2004096810 Example 236]: 2.51 nM.

`CCOCCn1nc(C)c2nc(N3CC4CCC3CN4)nc(Nc3cc(C)ccn3)c21` (stereo not shown) [WO2004096810 Example 237] yielded an IC50 of 0.67 nM. Next, `CCOCCn1nc(C)c2nc(N3C[C@@H]4C[C@H]3CN4)nc(Nc3ccc(C)cn3)c21` [WO2004096810 Example 240]: greater than 100 nM; `CCOCCn1nc(C)c2nc(N3C[C@@H]4C[C@H]3CN4)nc(Nc3ccncn3)c21` [WO2004096810 Example 241]: 48.7 nM; `CCOCCn1nc(COC)c2nc(N3CC4CCC(C3)N4)nc(Nc3cc(C)ccn3)c21` [WO2004096810 Example 242]: 0.62 nM.

As to `CCOCCn1nc(C)c2nc(N3CC4C[C@@H]3CN4)nc(Nc3cc(C)ccn3)c21` [WO2004096810 Example 244], the IC50 came to 2.54 nM. For `CCc1nn(CCOC)c2c(Nc3cc(C)ccn3)nc(NC)nc12` [compound 1], the midpoint of inhibition, the IC50, lay at 16.2 nM. `CCOCCn1nc(CC)c2nc(N(C)C3CCN(C)CC3)nc(Nc3ccncn3)c21` [compound 2] registered an IC50 of 0.48 nM.

These data come from patent US8518956B2, “1-(1-(2-ethoxyethyl)-3-ethyl-7-(4-methylpyridin-2-ylamino)-1H-pyrazolo[4,3-d]pyrimidin-5-yl) piperidine-4-carboxylic acid and salts thereof” (priority 2005, dated 2013).
